Where two headings read alike, the source gives them in different places.
How the values were obtained:
Renal Dipeptidase (RDP) [1] = target: T1, Renal Dipeptidase (RDP) (Homo sapiens, UniProt P16444); conditions: read-out: RDP inhibition Ki; colon cancer lysate; Table 1
Protocol: The assay buffer was prepared by mixing 20 mM Tris, pH=8, 10 μM ZnCl2. 1 mM substrate (ε-DNP-L-Lys-D-Amp) stock solution in DMSO was prepared. Inhibitors were diluted from MeOH stock solution in water. […] of lysate was taken in 150 μl of assay buffer and 20 μl of inhibitor was added. The mixture was incubated at room temperature for 30 min. It was then transferred to plate containing 2 μl/well, 1 mM substrate in DMSO. After mixing incubated at 37° C. Florescence was measured at 30 sec intervals. The IC50 values were determined using small Intestine lysate. Ki values were determined for selected compounds using colon cancer lysate.
(§1) The RDP inhibition activity of these compounds was determined using crude lysates prepared from human colon cancers. The results are expressed as the concentration of inhibitor needed to inhibit enzyme activity by 50% (IC50). Human colon cancer extracts were prepared by homogenizing one cm^3 of frozen colon tissue in 10 ml of 20 mM Tris, pH 8.0, 10 μM ZnCl2, 0.1% Triton X 100. The extract was clarified by centrifugation at 13,000×g for 5 minutes at 4° C. and, for each measurement, 20 μl was diluted into 158 μl of 20 mM Tris, pH 8.0, 10 μM ZnCl2. 20 μl of the synthesised compounds were added to each reaction to obtain final concentrations ranging from 0 to 10 μM. The mixtures were incubated at room temperature for 30 minutes to allow enzyme-inhibitor complex formation, and the reactions were initiated by the addition of 2 μl of 1 mM substrate (εDNP-L-Lys-D-Amp).^14 While incubating at 37° C., fluorescence (λex=320 nm, λem=405 nm) measurements were determined at 30 sec intervals and the relative reaction rate was taken as the rate of increase of fluorescence over time.

Renal Dipeptidase (RDP) [2] = target: T2, Renal Dipeptidase (RDP) (Homo sapiens, UniProt P16444); assay: RDP inhibition assay (IC50), small intestine lysate, fluorogenic substrate ε-DNP-L-Lys-D-Amp; assay type: biochemical
T2 construct: from tissue; host or cells: small intestine lysate
T2 sequence (P16444 17-385): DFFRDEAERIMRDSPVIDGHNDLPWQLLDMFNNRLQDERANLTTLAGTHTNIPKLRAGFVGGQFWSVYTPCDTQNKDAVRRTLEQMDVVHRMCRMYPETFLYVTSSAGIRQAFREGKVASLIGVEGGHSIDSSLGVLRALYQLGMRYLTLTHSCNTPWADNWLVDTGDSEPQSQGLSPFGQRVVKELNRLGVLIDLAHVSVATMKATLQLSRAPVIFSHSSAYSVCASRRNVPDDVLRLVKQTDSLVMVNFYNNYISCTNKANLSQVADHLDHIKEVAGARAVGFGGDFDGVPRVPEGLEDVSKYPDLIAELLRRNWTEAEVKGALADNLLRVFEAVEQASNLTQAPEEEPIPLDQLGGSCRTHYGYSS
Protocol: Inhibitors were diluted from MeOH stock solution in water. […] After mixing incubated at 37° C. Florescence was measured at 30 sec intervals. The IC50 values were determined using small Intestine lysate.

Renal Dipeptidase (RDP) [3] = target: T1, Renal Dipeptidase (RDP); conditions: for RDP inhibitor potency in words / activity of Z isomers relative to their E counterparts (9, 11 and 13): human colon cancer lysate, numbering of Table 3; for IC50: read-out: RDP inhibition activity IC50, colon cancer lysate, Table 3
Protocol: as §1

Row | SMILES | Ki (Renal Dipeptidase (RDP) [1]) [µM] | IC50 (Renal Dipeptidase (RDP) [2]; Table 1) [µM] | RDP inhibitor potency in words (Renal Dipeptidase (RDP) [3]) | IC50 (Renal Dipeptidase (RDP) [3]) [µM] | activity of Z isomers relative to their E counterparts (9, 11 and 13) (Renal Dipeptidase (RDP) [3]) | IC50 (Renal Dipeptidase (RDP) [2]; Table 2) [µM]
1 | NC(CC1CCCCC1)P(=O)(O)CC(=Cc1ccc(I)cc1)C(=O)O (mixture of isomers) [compound 14] | 0.003 | 0.045 |  |  |  | 
2 | NC(CC1CCCCC1)P(=O)(O)CC(=Cc1ccc(I)cc1)C(=O)O (mixture of isomers) [compound 15] | 0.01 | 0.25 | far less active | 0.045 |  | 
3 | NC(CC1CCCCC1)P(=O)(O)C/C(=C\c1ccccc1)C(=O)O (centres unmarked) [compound 6] | 0.00112 | 0.028 |  |  |  | 
4 | NC(CC1CCCCC1)P(=O)(O)C/C(=C/c1ccccc1)C(=O)O (centres unmarked) [compound 7] | 0.0016 | 0.04 |  |  |  | 
5 | NC(CC1CCCCC1)P(=O)(O)C/C(=C\c1ccc(F)cc1)C(=O)O (centres unmarked) [compound 8] | 0.0006 | 0.005 | potent RDP inhibitors | 0.0055 | significantly more active | 
6 | NC(CC1CCCCC1)P(=O)(O)C/C(=C/c1ccc(F)cc1)C(=O)O (centres unmarked) [compound 9] | 0.00072 | 0.015 |  | 0.3 |  | 
7 | NC(CC1CCCCC1)P(=O)(O)C/C(=C\c1ccc(Br)cc1)C(=O)O (centres unmarked) [compound 10] | 0.00072 | 0.006 | potent RDP inhibitors | 0.008 | significantly more active | 
8 | NC(CC1CCCCC1)P(=O)(O)C/C(=C/c1ccc(Br)cc1)C(=O)O (centres unmarked) [compound 11] | 0.0024 | 0.03 |  | 0.025 |  | 
9 | NC(CC1CCCCC1)P(=O)(O)C/C(=C\c1ccc(I)cc1)C(=O)O (centres unmarked) [compound 12] | 0.0006 | 0.008 | potent RDP inhibitors | 0.0035 | significantly more active | 
10 | NC(CC1CCCCC1)P(=O)(O)C/C(=C/c1ccc(I)cc1)C(=O)O (centres unmarked) [compound 13] | 0.002 | 0.025 |  | 0.06 |  | 
11 | NC(CC1CCCCC1)P(=O)(O)C/C(=C\c1ccc(C(F)(F)F)cc1)C(=O)O (centres unmarked) [compound 18] |  |  |  |  |  | 0.01
12 | NC(CC1CCCCC1)P(=O)(O)C/C(=C/c1ccc(C(F)(F)F)cc1)C(=O)O (centres unmarked) [compound 19] |  |  |  |  |  | 0.2
13 | CCN(CC)c1ccc(/C=C(\CP(=O)(O)C(N)CC2CCCCC2)C(=O)O)cc1 (centres unmarked) [compound 26] |  |  |  |  |  | 0.07
14 | CCN(CC)c1ccc(/C=C(/CP(=O)(O)C(N)CC2CCCCC2)C(=O)O)cc1 (centres unmarked) [compound 27] |  |  |  |  |  | 0.15
